Like-named read-outs stand apart in the source and are kept apart here.
Tests used:
[1] = tested on: A549 cells; test: Antiproliferative SRB assay (NCI protocol), 48 h; assay type: cell-based; settings: Homo sapiens, read-out: 50% growth inhibition (GI50) ± SD, A549
Method: (§1) In vitro antiproliferative activity was evaluated using the protocol of the National Cancer Institute (NCI) after 48 h of drug exposure using the sulforhodamine B (SRB) assay. […] We cannot discard that increasing lipophilicity may well result in an increase in cytotoxicity in vitro.
(§2) The following human solid tumor cell lines were used in this study: HBL-100 (breast), HeLa (cervix), SW1573 (non-small cell lung), T-47D (breast), A549 (lung), and WiDr (colon). Cells were maintained in 25 cm^2 culture flasks in RPMI 1640 supplemented with 5% heat-inactivated fetal calf serum and 2 mM L-glutamine in a 37 °C, 5% CO2, 95% humidified air incubator. Exponentially growing cells were trypsinized and resuspended in antibiotic containing medium (100 units penicillin G and 0.1 mg of streptomycin per mL). Single-cell suspensions displaying >97% viability by trypan blue dye exclusion test were subsequently counted. After counting, dilutions were made to give the appropriate cell densities for inoculation onto 96-well microtiter plates. Cells were inoculated in a volume of 100 μL per well at densities of 20,000 (WiDr), 15,000 (T-47D and A549), and 10,000 (HeLa, SW1573, and HBL-100) cells per well, based on their doubling times.
(§3) Chemosensitivity tests were performed using the SRB assay of the NCI with slight modifications. Briefly, pure compounds were initially dissolved in DMSO at 400 times the desired final maximum test concentration. Control cells were exposed to an equivalent concentration of DMSO (0.25% v/v, negative control). Each agent was tested in triplicate at different dilutions in the range 1–100 μM. Drug treatment started on day 1 after plating. Drug incubation periods were 48 h, after which cells were precipitated with 25 μL of ice-cold 50% (w/v) trichloroacetic acid and fixed for 60 min at 4 °C. Then, the SRB assay was performed. Optical density (OD) of each well was measured at 492 nm, using BioTek’s PowerWave XS Absorbance Microplate Reader (Highland Park, Winooski, VT, USA). Values were corrected for background OD from wells containing only culture medium. The percentage growth (PG) was calculated with respect to untreated control cells (C) at each level of drug concentrations based on the difference in OD at the start time (T0) and at the end of drug exposure (T), according to NCI formulas. Therefore, if T is greater than or equal to T0, the calculation is 100 × [(T–T0)/(C–T0)]. If T is lower than T0, denoting cell death, the calculation is 100 × [(T–T0)/(T0)]. The effect is defined as the growth percentage, where 50% growth inhibition (GI50) represents the concentration at which PG is +50. Based on these calculations, a PG value of 0 corresponds to the number of cells present at the beginning of drug exposure, while negative PG values denote net cell death.

[2] = tested on: HeLa cells; test: Antiproliferative SRB assay (NCI protocol), 48 h; assay type: cell-based; settings: Homo sapiens, read-out: 50% growth inhibition (GI50) ± SD, HeLa
Method: as §1, §2, §3

[3] = tested on: HBL100 cells; test: Antiproliferative SRB assay (NCI protocol), 48 h; assay type: cell-based; settings: Homo sapiens, read-out: 50% growth inhibition (GI50) ± SD, HBL100
Method: as §1, §2, §3

[4] = tested on: HBL100 cells; test: Antiproliferative SRB assay (NCI protocol), 48 h; assay type: cell-based, human; settings: splenocyte CC50 versus HBL100 GI50
[5] = tested on: A549 cells; test: Antiproliferative SRB assay (NCI protocol), 48 h; assay type: cell-based, human; settings: splenocyte CC50 versus A549 GI50
[6] = tested on: HeLa cells; test: Antiproliferative SRB assay (NCI protocol), 48 h; assay type: cell-based, human; settings: splenocyte CC50 versus HeLa GI50
[7] = tested on: WiDr cells; test: Antiproliferative SRB assay (NCI protocol), 48 h; assay type: cell-based, human; settings: for GI50: Homo sapiens, read-out: 50% growth inhibition (GI50) ± SD, WiDr; for Selectivity Index, WiDr: splenocyte CC50 versus WiDr GI50
Method: as §1, §2, §3

[8] = tested on: SW1573 cells; test: Antiproliferative SRB assay (NCI protocol), 48 h; assay type: cell-based, human; settings: for GI50: Homo sapiens, read-out: 50% growth inhibition (GI50) ± SD, SW1573; for Selectivity Index, SW1573: splenocyte CC50 versus SW1573 GI50
Method: as §1, §2, §3

[9] = tested on: T47-D cells; test: Antiproliferative SRB assay (NCI protocol), 48 h; assay type: cell-based, human; settings: for GI50: Homo sapiens, T47D, read-out: 50% growth inhibition (GI50) ± SD, T47-D; for Selectivity Index, T47-D: splenocyte CC50 versus T47-D GI50
Method: as §1, §2, §3

[10] = Cytotoxicity on primary cell culture (propidium iodide, flow cytometry); assay type: cell-based
Method: The cytotoxicity of the sesquiterpene lactones and its derivatives was evaluated using mouse splenocytes. […] Cumanin derivatives (4–11) have shown CC50 values and selectivity indexes higher than natural compound 1. […] The incorporation of two triazole groups in cumanin (1) reduced cytotoxicity on normal cells and improved selectivity against tumor cell lines.
In a 96-well plate, spleen cells from Balb/c mouse (1.5 × 10^5) were incubated with different drug dilutions (200, 100, 50, 10, and 5 μg/mL) in RPMI medium containing 10% fetal calf serum. After 48 h of incubation at 37 °C (5% CO2), cells were harvested, washed once with PBS, and stained with 2.5 μg/mL propidium iodide (PI) for 5 min at room temperature. Subsequently, cell death was assessed by flow cytometry using a BD FACSaria II cytometer. Cells incubated only with a drug vehicle were used as a 100% viability control and death percentage was calculated according to the following formula: Death(%)=[1−(%PI^−cells)drug−treated/(%PI^−cells)100% viability control]×100.
Then the concentration capable of causing cell death in 50% of splenocytes (CC50) was determined using a non-linear regression approach.

[11] = tested on: human solid tumor cell lines (A549, HBL-100, HeLa, SW1573, T-47D, WiDr); test: Antiproliferative SRB assay, whole panel of tumor cell lines; assay type: cell-based; settings: tumor cell line panel, compared to cumanin (1)
Method: as §1, §2, §3

[12] = A549 (lung), SRB, 48 h drug exposure
[13] = HeLa (cervix), SRB, 48 h drug exposure
[14] = HBL-100, HBL100 (breast), SRB, 48 h drug exposure
[15] = WiDr (colon), SRB, 48 h drug exposure
[16] = SW1573 (non-small cell lung), SRB, 48 h drug exposure
[17] = T47-D (breast), SRB, 48 h drug exposure

SMILES | GI50 [1, 12] | GI50 [2, 13] | GI50 [3, 14] | Selectivity Index, HBL100 [4] | Selectivity Index, A549 [5] | Selectivity Index, HeLa [6] | GI50 [7, 15] | Selectivity Index, WiDr [7] | GI50 [8, 16] | Selectivity Index, SW1573 [8] | GI50 [9, 17] | Selectivity Index, T47-D [9] | also measured
C=C1C(=O)OC2CC(C)C3CC(O)C(O)C3(C)CC12 (stereo not drawn) [Compound 1, cumanin] | 19 µM | 19 µM | 21 µM | 1.4 | 1.5 | 1.5 | 36 µM | 0.8 | 14 µM | 2.1 | 30 µM | 1.0 | 
C=C1C(=O)O[C@@H]2C[C@@H](C)[C@@H]3C=CC(=O)[C@@]3(C)[C@@H](O)[C@H]12 [Compound 2, helenalin] |  |  |  | 0.4 | 0.5 | 0.7 |  | 0.4 |  | 0.5 |  | 0.4 | GI50 ([1]; A549, 48 h): 2.3 µM; GI50 ([2]; HeLa, 48 h): 1.7 µM; GI50 ([3]; HBL-100, 48 h): 2.8 µM; GI50 ([7]; WiDr, 48 h): 2.7 µM; GI50 ([8]; SW1573, 48 h): 2.2 µM; GI50 ([9]; 48 h): 2.9 µM; CC50 at 48 h ([10]; Balb/c mouse spleen cells, 48 h incubation, PI staining, read-out: CC50 ± SD, splenocytes (concentration that causes 50% cell death)): 1.2 µM
C=C1C(=O)O[C@@H]2[C@H]1CC[C@H](C)[C@@]1(O)C=CC(=O)[C@@]21C [Compound 3, hymenin] | 9.7 µM | 14 µM | 17 µM | 0.3 | 0.4 | 0.3 | 18 µM | 0.2 | 6.4 µM | 0.7 | 20 µM | 0.2 | CC50 at 48 h ([10]; Balb/c, mouse): 4.4 µM
C=C1C(=O)O[C@@H]2C[C@H](C)[C@@H]3C[C@H](OC(C)=O)[C@H](OC(C)=O)[C@@]3(C)C[C@H]12 [Compound 4] | 24 µM | 16 µM | 23 µM | 10.5 | 10.0 | 15.0 | 27 µM | 8.9 | 11 µM | 21.9 | 26 µM | 9.3 | antiproliferative activity in words [11]: moderate activity
C=C1C(=O)O[C@@H]2C[C@H](C)[C@@H]3C[C@H](O[Si](C)(C)C)[C@H](O[Si](C)(C)C)[C@@]3(C)C[C@H]12 [Compound 5] | 2.4 µM | 2.9 µM | 3.6 µM | 18.4 | 27.7 | 22.9 | 2.2 µM | 30.2 | 1.8 µM | 36.9 | 1.9 µM | 34.9 | 
